{
  "source": "patent US9603841B2",
  "about": "“Vector delivery-based microbicides” (Rush University Medical Center, priority 2005, dated 2017)",
  "key": {"[1]": {"test_system": "spermatozoa", "settings": "cited from earlier work"}, "[2]": {"test_system": "spermatozoa", "settings": "cited from earlier work", "remark": "listed apart in the source"}, "[3]": {"test_system": "vaginal/cervical epithelial and other cells", "settings": "cited from earlier work"}, "[4]": {"molecular_target": "human spermatozoa", "assay": "Inhibition of fractionated NO23-SAMMA-induced acrosomal loss by protein kinase G inhibitor", "format": "cell-based", "settings": "Ca2+-independent (absence of added extracellular Ca2+)", "excerpt": "NO23-SAMMA, whether fractionated or not, appears, at least in part, to act through release of nitric oxide. Fractionated NO23-SAMMA-induced acrosomal loss in the absence of added extracellular Ca^2+ is inhibited by the selective protein kinase G inhibitor KT5823 (see FIG. 6). […] Acrosomal loss in human spermatozoa in response to NO donors is inhibited by protein kinase G inhibitors ([…] et al., “Signaling pathway of nitric oxide-induced acrosome reaction in human spermatozoa”, Biol. Reprod., 64: 1708-12 (2001)). […] Inhibition of acrosomal loss by the selective protein kinase G inhibitor supports this contention."}, "[5]": {"test_system": "hyaluronidase", "assay": "Hyaluronidase activity inhibition", "format": "biochemical", "settings": "50 μM", "description": "Hyaluronidase activity was measured as described in Example 8 of U.S. Pat. No. 5,932,619. […] In contrast, the NO donor moiety of NO23-SAMMA, nitrooxypropanol, is nearly without effect."}, "[6]": {"test_system": "human spermatozoa", "assay": "Acrosomal loss (AL) in human spermatozoa", "format": "cell-based", "settings": "for EC50: Homo sapiens, Spermatozoa", "description": "Measurement of AL was carried out as described previously. […] All reactions were carried out in either the presence or absence of added extracellular Ca^2+ (1.28 mM). […] Data are expressed as the average % maximal response, based on the AL induced by a maximally stimulating concentration of the calcium ionophore A23187.\nUnless otherwise noted, acrosomal loss data were obtained from assays that included Ca^2+ in the extracellular medium. In contrast, acrosomal loss induced by NO donors occurs independent of Ca^2+. […] Although not wishing to be limited by theory, it appears that acrosomal loss in the presence of added extracellular Ca^2+ may be due to either or both moieties, whereas acrosomal loss in the absence of Ca^2+ is due entirely to the NO donor moiety."}, "[7]": {"test_system": "HIV-1 Bee", "assay": "HIV-1 infected primary lymphocytes, agent added after inoculation (p24, day 7)", "format": "cell-based", "settings": "agent added after 2 h inoculation and washing, p24 on day 7", "description": "HIV is sensitive to inhibition by the NO donor used to synthesize NO-SAMMA (nitrooxypropanol), although substantially less than to NO-SAMMA. […] Viral replication was measured on day 7 of incubation (p24 levels)."}, "[8]": {"test_system": "spermatozoa", "assay": "Sperm immobilization (modified Sander and Cramer), motile spermatozoa", "format": "cell-based", "settings": "10 mM", "excerpt": "Data are presented as the percentage of motile spermatozoa at each concentration of test agent. When possible, test outcomes were also reported as the concentration of agent in the semen sample that reduces motility by 50%."}, "[9]": {"test_system": "C. trachomatis (serotype E/UW-5/CX)", "assay": "Infection of HeLa cells by C. trachomatis", "format": "cell-based, Chlamydia trachomatis", "settings": "read-out: IC50 against C. trachomatis", "description": "Effect of NO-SAMMA against C. trachomatis. […] This was followed by inoculation of the monolayer with chlamydial elementary bodies. One hour after inoculation, free microbes and/or microbicide were removed by washing, and the HeLa cell cultures were incubated for an additional 48 hours at 37° C. Chlamydia-induced inclusions were measured by immunofluorescence, after reacting cultures with Kallsted chlamydia culture confirmation fluorescein-conjugated monoclonal antibody."}, "[10]": {"settings": "0.5 mM in 0.1 M PBS, pH 7.4, 37° C.; cited from earlier work"}},
  "note": "Where two headings read alike, the source gives them in different places.",
  "data": [
    {"compound": "NCCOB(c1ccccc1)c1ccccc1", "note": "[2-APB]", "values": [
      {"measurement": "effect on SAMMA-induced acrosomal loss", "setting": "[1]", "value": "not inhibited"}
    ]},
    {"compound": "O=c1c2nc(Br)n([C@@H]3O[C@@H]4CO[P@@](O)(=S)O[C@H]4[C@H]3O)c2nc2[nH]c(-c3ccccc3)cn12", "note": "[Rp-8-Br-PET-cGMPS]", "values": [
      {"measurement": "effect on NO donor-induced acrosomal loss", "setting": "[2]; 0.35 μM", "value": "not inhibited"}
    ]},
    {"compound": "CCCCCCOC(=O)[C@]1(O)C[C@@H]2O[C@@]1(C)n1c3ccccc3c3c4c(c5c6ccccc6n2c5c31)C(=O)NC4", "note": "[KT5720]", "values": [
      {"measurement": "effect on SAMMA-induced acrosomal loss", "setting": "[1]", "value": "not inhibited"}
    ]},
    {"compound": "nonoxynol-9", "values": [
      {"measurement": "lowest concentration that can injure cells", "setting": "[3]", "value": "about 0.0005%"}
    ]},
    {"compound": "COC(=O)[C@@]1(OC)C[C@H]2O[C@]1(C)n1c3ccccc3c3c4c(c5c6ccccc6n2c5c31)C(=O)N(C)C4", "note": "[KT5823]", "values": [
      {"measurement": "effect on NO donor-induced acrosomal loss", "setting": "[2]; 2 μM", "value": "not inhibited"},
      {"measurement": "IC50", "setting": "[4]", "value": 700, "unit": "nM"},
      {"measurement": "inhibition of SAMMA-induced acrosomal loss", "setting": "[1]; 2 μM", "value": "> 95", "unit": "%"}
    ]},
    {"compound": "O=[N+]([O-])OCCCO", "note": "[Nitrooxypropanol, 3-nitrooxy-1-propanol]", "values": [
      {"measurement": "Inhibition ± SEM (N = 4)", "setting": "[5]", "value": "8 ± 1.8", "unit": "% at 50 μM"},
      {"measurement": "EC50", "setting": "[6]; Ca2+-independent, read-out: ED50 acrosomal loss", "value": 120, "unit": "nM"},
      {"measurement": "EC50", "setting": "[6]; read-out: ED50 as a stimulus of acrosomal loss", "value": 120, "unit": "nM"},
      {"measurement": "IC50", "setting": "[7]; Human immunodeficiency virus 1, Lymphocyte", "value": 2540, "unit": "µg/mL"},
      {"measurement": "concentration giving 80% reduction (printed in the 3-Log reduction column)", "setting": "[7]", "value": "1017 (80% reduction) μg/mL"},
      {"measurement": "% Motile Spermatozoa av ± SEM (n = 4)", "setting": "[8]", "value": "66 ± 0.5", "unit": "at 10 mM %"}
    ]},
    {"compound": "O=c1onc2cnc3ccccc3n12", "note": "[ODQ]", "values": [
      {"measurement": "inhibition of SAMMA-induced acrosomal loss", "setting": "[1]; 0.1 μM", "value": "~50", "unit": "%"}
    ]},
    {"compound": "nitroprusside", "values": [
      {"measurement": "% maximal AL", "setting": "[6]; 22 μM", "value": 74, "unit": "%"},
      {"measurement": "IC50", "setting": "[9]", "value": 23000, "unit": "nM"}
    ]},
    {"compound": "CC/C(=C\\C(=N/O)C(N)=O)C(C)[N+](=O)[O-]", "note": "(racemic) [NOR-3, (±)-E-4-ethyl-2-[(E)-hydroxyimino]-5 nitro-3-hexenamide]", "values": [
      {"measurement": "half-life", "setting": "[10]", "value": "about 30 minutes"}
    ]}
  ]
}
